Assay results from patent US10611740B2, “Aryl dihydro-2H-benzo[b][1,4]oxazine sulfonamide and related compounds for use as agonists of RORγ and the treatment of disease” (Lycera Corporation, priority 2015, dated 2020).

How the values were obtained:
RORγ-LBD = target: T1, RORγ-LBD (Homo sapiens, UniProt P51449); assay: RORγ-Ligand Binding Domain (LBD) TR-FRET Assay; type: biochemical;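 on TR-FRET Assay Max Response: 665/615 nm ratio relative to signal without ursolic acid or compound set at 100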
T1 construct: made in house; host or cells: SF9 cells (baculovirus)
T1 sequence (P51449 269-508 limits assumed): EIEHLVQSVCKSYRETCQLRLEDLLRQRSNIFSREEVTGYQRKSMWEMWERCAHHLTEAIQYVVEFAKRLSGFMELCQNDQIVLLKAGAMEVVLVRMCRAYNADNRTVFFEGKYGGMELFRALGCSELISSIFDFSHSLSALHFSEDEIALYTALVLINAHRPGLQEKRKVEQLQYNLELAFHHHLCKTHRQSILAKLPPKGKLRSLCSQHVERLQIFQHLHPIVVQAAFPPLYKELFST
Procedure, shortened: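 Compounds, diluted in DMSO and then in assay buffer (1% DMSO final), were combined with His-tagged RORγ-LBD lysate at roughly 3 nM final and a 200 nM biotinylated SRC1 LXXLL peptide. Ursolic acid was included at 2 μM final. Coactivator recruitment was detected by TR-FRET.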

Gal4-RORγ-LBD = target: T2, Gal4-RORγ-LBD (Homo sapiens, UniProt P51449); assay: Gal4-RORγ Luciferase Reporter Assay in HEK-293T Cells; type: cell-based; settings: HEK-293 cells
T2 construct: expressed in transfected cells; host or cells: HEK-293 cells (pcDNA3.1neo plasmid)
T2 sequence (P51449 269-508 limits assumed): T1 sequence (P51449 269-508 limits assumed)
Procedure, shortened: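 HEK-293 cells were transiently co-transfected with Gal4-RORγ-LBD and pGL4.31 Gal4-luciferase, with ursolic acid added at 2 μM final. Compounds were incubated overnight at 37° C. in 0.2% DMSO and luminescence read with One-Glo. Max Response is the upper plateau of a 4-parameter logistic fit, with signal lacking ursolic acid or compound set to 100.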

[1] = luciferase reporter, with 2 μM ursolic acid

Row | SMILES | EC50 (RORγ-LBD) | EC50 (Gal4-RORγ-LBD; [1]) | EC50 (Gal4-RORγ-LBD; 2 μM ursolic acid) | TR-FRET Assay Max Response (RORγ-LBD) | Gal4-RORγ Assay Max Response (Gal4-RORγ-LBD; [1]) | Gal4-RORγ Assay Max Response (Gal4-RORγ-LBD; 2 μM ursolic acid)
1 | COc1c(Cl)cccc1-c1ccc2c(c1)N(S(=O)(=O)c1cccc(C(F)(F)F)c1)C[C@H](CCC(=O)O)O2 [Compound 2AC, (S)-3-(6-(3-chloro-2-methoxy-phenyl)-4-((3-(trifluoromethyl)-phenyl)sulfonyl)-3,4-dihydro-2H-benzo[b][1,4]oxazin-2-yl)propanoic acid] | < 500 nM | < 500 nM | – | **** (The symbol “****” indicates a value greater than 200) | *** (The symbol “***” indicates a value in the range of greater than 150 to 200) | –
2 | O=C(O)CC[C@H]1CN(S(=O)(=O)c2cccc(C(F)(F)F)c2)c2cc(-c3cccc(Cl)c3)c(Cl)cc2O1 [Compound 7, (S)-3-(7-chloro-6-(3-chlorophenyl)-4-((3-(trifluoromethyl)phenyl)sulfonyl)-3,4-dihydro-2H-benzo[b][1,4]oxazin-2-yl)propanoic acid] | < 500 nM | < 500 nM | – | **** (The symbol “****” indicates a value greater than 200) | ** (The symbol “**” indicates a value in the range of greater than 90 to 150) | –
3 | CC(=O)N[C@H](C)C(=O)NC[C@H]1CN(S(=O)(=O)c2cccc(C(F)(F)F)c2)c2cc(-c3cc(F)ccc3F)ccc2O1 [Compound 30AT, (R)-2-acetamido-N-(((S)-6-(2,5-difluorophenyl)-4-((3-(trifluoro-methyl)phenyl)sulfonyl)-3,4-dihydro-2H-benzo[b][1,4]-oxazin-2-yl)methyl)propanamide] | < 500 nM | 500 to 5000 nM | – | *** (The symbol “***” indicates a value in the range of greater than 150 to 200) | ** (The symbol “**” indicates a value in the range of greater than 90 to 150) | –
4 | CC(C)(C[C@H]1CN(S(=O)(=O)c2cccc(C(F)(F)F)c2)c2cc(-c3cc(F)cc(F)c3)ccc2O1)C(=O)O [Compound 32N, (S)-3-(6-(3,5-difluorophenyl)-4-((3-(trifluoromethyl)phenyl)-sulfonyl)-3,4-dihydro-2H-benzo[b][1,4]oxazin-2-yl)-2,2-dimethylpropanoic acid] | < 500 nM | < 500 nM | – | *** (The symbol “***” indicates a value in the range of greater than 150 to 200) | ** (The symbol “**” indicates a value in the range of greater than 90 to 150) | –
5 | Cc1cc(C)cc(-c2ccc3c(c2)N(S(=O)(=O)c2cccc(C(F)(F)F)c2)C[C@H](CC(C)(C)C(=O)O)O3)c1 [Compound 32AS, (S)-3-(6-(3,5-dimethylphenyl)-4-((3-(trifluoromethyl)phenyl)-sulfonyl)-3,4-dihydro-2H-benzo[b][1,4]oxazin-2-yl)-2,2-dimethylpropanoic acid] | < 500 nM | – | < 500 nM | ** (The symbol “**” indicates a value in the range of greater than 90 to 150) | – | ** (The symbol “**” indicates a value in the range of greater than 90 to 150)
6 | O=C(O)CC[C@H]1CN(S(=O)(=O)c2cccc(C3CC3)c2)c2cc(-c3cccc(Cl)c3)ccc2O1 [Compound 6H, (S)-3-(6-(3-chlorophenyl)-4-((3-cyclopropylphenyl)sulfonyl)-3,4-dihydro-2H-benzo[b][1,4]oxazin-2-yl)propanoic acid] | < 500 nM | < 500 nM | – | **** (The symbol “****” indicates a value greater than 200) | ** (The symbol “**” indicates a value in the range of greater than 90 to 150) | –
7 | CC(C)(C[C@H]1CN(S(=O)(=O)c2cccc(C(F)(F)F)c2)c2cc(-c3cc(Cl)cc(F)c3Cl)ccc2O1)C(=O)O [Compound 32AW, (S)-3-(6-(2,5-dichloro-3-fluoro-phenyl)-4-((3-(trifluoromethyl)-phenyl)sulfonyl)-3,4-dihydro-2H-benzo[b][1,4]oxazin-2-yl)-2,2-dimethylpropanoic acid] | < 500 nM | – | < 500 nM | ** (The symbol “**” indicates a value in the range of greater than 90 to 150) | – | ** (The symbol “**” indicates a value in the range of greater than 90 to 150)
8 | O=C(O)CC[C@H]1CN(S(=O)(=O)c2cccc(C(F)(F)F)c2)c2cc(-c3cc(Cl)cc(F)c3F)ccc2O1 [Compound 4AQ, (S)-3-(6-(5-chloro-2,3-difluorophenyl)-4-((3-(trifluoromethyl)phenyl)sul-fonyl)-3,4-dihydro-2H-benzo[b][1,4]oxazin-2-yl)propanoic acid] | < 500 nM | < 500 nM | – | **** (The symbol “****” indicates a value greater than 200) | ** (The symbol “**” indicates a value in the range of greater than 90 to 150) | –
9 | COc1cc(S(=O)(=O)N2C[C@H](CNC(=O)[C@@](C)(O)C(F)(F)F)Oc3ccc(-c4cc(F)ccc4F)cc32)ccc1F [Compound 30X, (R)-N-(((S)-6-(2,5-difluorophenyl)-4-((4-fluoro-3-methoxyphenyl)sulfonyl)-3,4-dihydro-2H-benzo[b][1,4]oxazin-2-yl)methyl)-3,3,3-trifluoro-2-hydroxy-2-methylpropanamide] | < 500 nM | < 500 nM | – | *** (The symbol “***” indicates a value in the range of greater than 150 to 200) | * (The symbol “*” indicates a value in the range of 25 to 90) | –
10 | CCc1ccccc1-c1ccc2c(c1)N(S(=O)(=O)c1cccc(C(F)(F)F)c1)C[C@H](CCC(=O)O)O2 [Compound 2BD, (S)-3-(6-(2-ethylphenyl)-4-((3-(trifluoromethyl)phenyl)sulfonyl)-3,4-dihydro-2H-benzo[b][1,4]oxazin-2-yl)propanoic acid] | < 500 nM | < 500 nM | – | **** (The symbol “****” indicates a value greater than 200) | ** (The symbol “**” indicates a value in the range of greater than 90 to 150) | –

The next lines start with results.

Row | EC50 (RORγ-LBD) | EC50 (Gal4-RORγ-LBD; [1]) | EC50 (Gal4-RORγ-LBD; 2 μM ursolic acid) | SMILES | TR-FRET Assay Max Response (RORγ-LBD) | Gal4-RORγ Assay Max Response (Gal4-RORγ-LBD; [1]) | Gal4-RORγ Assay Max Response (Gal4-RORγ-LBD; 2 μM ursolic acid)
11 | < 500 nM | – | < 500 nM | O=C(O)[C@]1(C[C@H]2CN(S(=O)(=O)c3cccc(C(F)(F)F)c3)c3cc(-c4cc(F)cc(OC(F)F)c4)ccc3O2)CCNC1=O [Compound 73, (S)-3-(((S)-6-(3-(difluoromethoxy)-5-fluorophenyl)-4-((3-(trifluoromethyl)phenyl)sulfonyl)-3,4-dihydro-2H-benzo[b][1,4]oxazin-2-yl)methyl)-2-oxopyrrolidine-3-carboxylic acid] | *** (The symbol “***” indicates a value in the range of greater than 150 to 200) | – | ** (The symbol “**” indicates a value in the range of greater than 90 to 150)
12 | < 500 nM | – | < 500 nM | O=S(=O)(c1cccc(C(F)(F)F)c1)N1C[C@H](CC2(CO)COC2)Oc2ccc(-c3cc(F)cc(OC(F)F)c3)cc21 [Compound 49, (S)-(3-((6-(3-(difluoromethoxy)-5-fluorophenyl)-4-((3-(trifluoromethyl)phenyl)sulfonyl)-3,4-dihydro-2H-benzo[b][1,4]oxazin-2-yl)methyl)oxetan-3-yl)methanol] | ** (The symbol “**” indicates a value in the range of greater than 90 to 150) | – | ** (The symbol “**” indicates a value in the range of greater than 90 to 150)
13 | < 500 nM | – | < 500 nM | C[C@H](C[C@H]1CN(S(=O)(=O)c2cccc(C(F)(F)F)c2)c2cc(-c3cccc(Cl)c3F)ccc2O1)C(=O)O [Compound 46D, (R)-3-((S)-6-(3-chloro-2-fluoro-phenyl)-4-((3-(trifluoromethyl)-phenyl)sulfonyl)-3,4-dihydro-2H-benzo[b][1,4]oxazin-2-yl)-2-methylpropanoic acid] | *** (The symbol “***” indicates a value in the range of greater than 150 to 200) | – | ** (The symbol “**” indicates a value in the range of greater than 90 to 150)
14 | < 500 nM | – | < 500 nM | O=C(O)[C@H]1C[C@H](C[C@H]2CN(S(=O)(=O)c3cccc(C(F)(F)F)c3)c3cc(-c4cccc(C(F)(F)F)n4)ccc3O2)C1 [Compound 60C, (1S,3r)-3-(((S)-4-((3-(trifluoro-methyl)phenyl)sulfonyl)-6-(6-(trifluoromethyl)pyridin-2-yl)-3,4-dihydro-2H-benzo[b][1,4]-oxazin-2-yl)methyl)cyclobutane-1-carboxylic acid] | ** (The symbol “**” indicates a value in the range of greater than 90 to 150) | – | ** (The symbol “**” indicates a value in the range of greater than 90 to 150)
15 | < 500 nM | – | < 500 nM | CC(=O)NC1(C[C@H]2CN(S(=O)(=O)c3cccc(C(F)(F)F)c3)c3cc(-c4cccc(C(F)(F)F)n4)ccc3O2)COC1 [Compound 51M, (S)-N-(3-((4-((3-(trifluoromethyl)-phenyl)sulfonyl)-6-(6-(trifluoromethyl)pyridin-2-yl)-3,4-dihydro-2H-benzo[b][1,4]oxazin-2-yl)methyl)oxetan-3-yl)acetamide] | *** (The symbol “***” indicates a value in the range of greater than 150 to 200) | – | ** (The symbol “**” indicates a value in the range of greater than 90 to 150)
